Experimental data taken from PubChem BioAssay AID1996.
In brackets after ≈: the same amount, converted by molar mass.

conditions: buffer; pH 7.4; 200.0 µM

solubility kinetic	SMILES
1.8 µg/mL (≈ 5.27 µM)	COc1ccc(NC(=O)Nc2c(SC)nsc2SC)cc1
> 51.4 µg/mL	COc1ccc(S(=O)(=O)N(C)CC(=O)N2CCCC2)cc1OC
45.5 µg/mL (≈ 139 µM)	Cn1c2c(c(=O)n(C)c1=O)C(c1cccc(F)c1)C(C#N)=C(N)O2 (stereo not drawn)
12.2 µg/mL (≈ 33.5 µM)	Cc1cc(C)c(C)c(S(=O)(=O)NCC(=O)Nc2ccccc2F)c1C
3.4 µg/mL (≈ 11.7 µM)	Cc1ccc(C(=O)NCCOc2ccc(Cl)cc2)cc1
> 53.2 µg/mL	O=C(O)c1cc(S(=O)(=O)N2CCCCC2)ccc1N1CCOCC1
0.9 µg/mL (≈ 3.16 µM)	Cc1[nH]c2ccc(C(=O)NC3CCC(C)CC3)cc2c1C (stereo not drawn)
> 57.3 µg/mL	CC1CCCC(NC(=O)Cn2c(Cl)nc3c2c(=O)n(C)c(=O)n3C)C1C (stereo not drawn)
2.8 µg/mL (≈ 6.3 µM)	Cc1sc2ncnc(N3CCN(S(=O)(=O)c4ccc(C(C)(C)C)cc4)CC3)c2c1C
> 41.1 µg/mL	O=C(O)CN1C(=O)NC2(CCCc3ccccc32)C1=O (stereo not drawn)
36.8 µg/mL (≈ 117 µM)	COc1ccccc1C(=O)NCCCNC(=O)c1cccnc1
42.3 µg/mL (≈ 145 µM)	CC1Cc2ccccc2N1C(=O)Cn1cnc2ccccc21 (stereo not drawn)
> 37.3 µg/mL	CC(=O)c1cccc(NC(=S)N2CCCC2)c1
6.2 µg/mL (≈ 23.3 µM)	Cc1ccccc1-c1cn(-c2ccccc2)c(=S)[nH]1
3.7 µg/mL (≈ 10.8 µM)	CC(C)COc1ncnc2c1sc1nc3c(cc12)COC(C)(C)C3
47 µg/mL (≈ 122 µM)	CCOC(=O)N1CCN(c2ccc(S(=O)(=O)N3CCOCC3)cn2)CC1
> 50.9 µg/mL	O=C(Cc1ccccc1)NCC(=O)N/N=C/c1ccc(C(=O)O)cc1
> 41.7 µg/mL	O=C(CNC(=O)c1cccs1)NCCc1ccco1
5.2 µg/mL (≈ 17.5 µM)	COc1ccc(COc2cccc3ccc(C)nc23)cc1F
1 µg/mL (≈ 3.11 µM)	O=C(CSc1nc(-c2ccccc2)ns1)N1CCOCC1
53.5 µg/mL (≈ 150 µM)	COCCNC(=O)c1ccccc1NC(=O)c1cccc([N+](=O)[O-])c1C
2.7 µg/mL (≈ 8.87 µM)	COC(=O)c1sccc1NC(=O)Nc1cc(C)cc(C)c1
> 35.3 µg/mL	Cc1csc(NC(=O)c2ccc(=O)[nH]c2)n1

solubility kinetic	SMILES
> 51.4 µg/mL	CCOCC(=O)Nc1ccc(S(=O)(=O)NCC2CCCO2)cc1 (stereo not drawn)
< 0.7 µg/mL	COc1ccc(C(=O)Nc2ccc3ccccc3c2)c(OC)c1
< 0.2 µg/mL	Cc1cc(NC(=O)CSc2nc3c(C)c(C)ccc3cc2C)no1
4.2 µg/mL (≈ 16.6 µM)	N#Cc1ccc(N=c2ssnc2Cl)cc1
6.4 µg/mL (≈ 17.5 µM)	Cc1ccc(NC(=O)c2ccccc2F)c(NC(=O)c2ccccc2F)c1
34.5 µg/mL (≈ 108 µM)	O=C(COc1ccc(Br)cc1)N(CCO)CCO
53.1 µg/mL (≈ 135 µM)	Cc1ccc(C(=O)NCCN2CCN(C(=O)c3ccc(C)c(C)c3)CC2)cc1C
11 µg/mL (≈ 42.3 µM)	COc1ccc(C)cc1NC(=O)NCc1ccco1
5.3 µg/mL (≈ 10.7 µM)	O=C(CCNC(=O)c1ccc(Br)cc1)Nc1ccc(S(=O)(=O)N2CCOCC2)cc1
21.2 µg/mL (≈ 62.8 µM)	O=C(NC1CCCC1)c1cc(COc2ccc3ncccc3c2)on1
0.7 µg/mL (≈ 2.47 µM)	CC(C)Oc1ccc(Cn2c(=O)oc3ccccc32)cc1
3.3 µg/mL (≈ 10.2 µM)	COc1cc(OC)cc(C(=O)NCc2ccc3[nH]c(C)cc3c2)c1
28.3 µg/mL (≈ 147 µM)	CC(C)c1ccc2nc(N)sc2c1
> 46.5 µg/mL	Cc1ccc(NC(=O)NCCCN2CCCC2=O)cc1Cl
0.6 µg/mL (≈ 2.13 µM)	N=c1oc2ccccc2cc1C(=O)Nc1ccc(F)cc1
30.4 µg/mL (≈ 126 µM)	NC(=S)c1ncc(C(F)(F)F)cc1Cl
0.6 µg/mL (≈ 1.84 µM)	Cc1ccccc1NC(=S)N1CCN(c2ccccc2C)CC1
> 44.5 µg/mL	Cc1ccc(S(=O)(=O)CCSc2nccn2C)cc1
> 36.6 µg/mL	COc1cccc(CNc2cc(C)ccn2)c1O
1.3 µg/mL (≈ 4.7 µM)	Cc1ccc(SCCC(=O)Nc2cc(C)on2)cc1
> 55.4 µg/mL	CCC(Oc1ccccc1OC)C(=O)Nc1ccc2c(c1)n(C)c(=O)n2C (stereo not drawn)
14.4 µg/mL (≈ 45.1 µM)	Cc1ccc(S(=O)(=O)NCCOc2cc(C)ccc2C)cc1
0.4 µg/mL (≈ 1.51 µM)	Cc1ccc(C)c(C(=O)Nc2nc3ccccc3[nH]2)c1

Continued, molecule first:

SMILES	solubility kinetic
CCCCCCNC1=NCCS1	22.9 µg/mL (≈ 123 µM)
CC1CCN(C(=O)CN(Cc2ccc(Cl)cc2)S(C)(=O)=O)CC1	52.8 µg/mL (≈ 147 µM)
O=C(O)c1ccc(Cn2cc(/C=C\[N+](=O)[O-])c3ccccc32)o1	> 46.8 µg/mL
Cl.c1ccc2c(c1)CCCC2C1=NCCN1 (stereo not drawn)	> 35.5 µg/mL
CCOC(=O)Cc1nc2nc(C)cc(C)n2n1	> 35.1 µg/mL
COc1ccc(NC(=O)C2Cc3ccccc3O/C2=N\O)cc1 (stereo not drawn)	10.2 µg/mL (≈ 32.7 µM)
O=C(NCC1CCCO1)c1cc(-c2ccc(F)cc2)no1 (stereo not drawn)	> 43.5 µg/mL
CN(C)CCCN1C(=O)c2cccc3cccc(c23)C1=O	> 42.4 µg/mL
COc1ccc(NC(=O)CCc2nc3ccccc3c(=O)[nH]2)cc1S(=O)(=O)N1CCCCC1	9.6 µg/mL (≈ 20.4 µM)
Cc1ccc(C)c(NC(=O)CN(C)C(=O)c2ccncc2)c1	39.1 µg/mL (≈ 131 µM)
CSc1cccc(NC(=O)CC2Oc3ccccc3NC2=O)c1 (stereo not drawn)	1.8 µg/mL (≈ 5.48 µM)
CCOC(=O)N1CCN(C(=O)C2CCN(C(=O)Nc3ccccc3)CC2)CC1	> 58.3 µg/mL
CCOc1ccc(NC(=O)COC(=O)CC2CCCCC2)cc1	26.6 µg/mL (≈ 83.3 µM)
Cc1ccc2nc(NCC(N)=O)nc(-c3ccccc3)c2c1	1.4 µg/mL (≈ 4.79 µM)
O=C(OCc1cccc(F)c1)c1ccc2c(=O)n3c(nc2c1)CCC3	18.5 µg/mL (≈ 54.7 µM)
O=[N+]([O-])c1ccc(COP(=O)([O-])OCc2ccc([N+](=O)[O-])cc2)cc1.[Na+]	58.2 µg/mL
CC(=O)Nc1ccc(-c2cc(C(=O)O)c3ccccc3n2)cc1	42.8 µg/mL (≈ 140 µM)
CCC(C)Nc1nc(N)c([N+](=O)[O-])c(NCc2ccccc2)n1 (stereo not drawn)	3.6 µg/mL (≈ 11.4 µM)
O=C(CCCSc1ccccc1)Nc1cccc(CO)c1	> 45.2 µg/mL
CCOc1ccc(C2NC(=O)NC(C)=C2[N+](=O)[O-])cc1OC (stereo not drawn)	45.5 µg/mL (≈ 148 µM)
Cc1ccsc1C(=O)OCC(=O)N(Cc1ccccc1)C(C)C	40.2 µg/mL (≈ 121 µM)
O=C(O)c1nn(-c2ccccc2C(F)(F)F)cc1O	> 40.8 µg/mL
CNC(=O)/C(C#N)=C/c1ccc(OCCOc2ccccc2)cc1	2.3 µg/mL (≈ 7.13 µM)
CC1CN(S(=O)(=O)c2cccc(C(=O)NCc3ccccn3)c2)CC(C)O1 (stereo not drawn)	> 58.4 µg/mL

SMILES	solubility kinetic
Cn1c(=O)[nH]c(=O)c2c1nc(N1CCNCC1)n2Cc1ccccc1	45.8 µg/mL (≈ 135 µM)
CC(CCc1ccc(O)cc1)NCCC(c1ccccc1)c1ccccc1 (stereo not drawn)	53.4 µg/mL (≈ 149 µM)
O=C(Nc1ncccn1)c1cccc(F)c1	> 32.6 µg/mL
N#C/C(C(N)=O)=C1/CCCN1Cc1ccccc1	> 36.2 µg/mL
Cc1nc2ccccc2n1C1CCN(C(=O)Nc2ccccc2)CC1	> 50.2 µg/mL
Cc1nc2ccccc2c(=O)n1Cc1ccco1	> 36 µg/mL
c1coc(CNc2nc3ccccc3s2)c1	32.3 µg/mL (≈ 140 µM)
CCOc1ccc(Cl)cc1S(=O)(=O)NCc1ccccn1	> 49 µg/mL
COc1ccc(NC(=O)c2cccc(NS(=O)(=O)c3ccccc3)c2)cc1	34.2 µg/mL (≈ 89.4 µM)
Cc1cccc(NC(=O)C2CC3CCC2C3)c1C (stereo not drawn)	10.5 µg/mL (≈ 43.1 µM)
O=C1Nc2ccccc2C1(O)c1ccccc1O (stereo not drawn)	> 36.2 µg/mL
CC(=O)N1CCN(c2ccc(NC(=O)c3ccco3)cc2)CC1	> 47 µg/mL
O=C(CN1CCN(c2ccccn2)CC1)Nc1ccc(F)cc1F	> 49.9 µg/mL
CCc1ccccc1NC(=O)c1cc(-c2ccco2)on1	3.1 µg/mL (≈ 11 µM)
C[C@H](Cc1ccccc1)Nc1ncnc2c1ncn2[C@@H]1O[C@H](CO)[C@@H](O)[C@H]1O	> 57.8 µg/mL
O=C(COC(=O)CCC(=O)c1ccc(Cl)cc1)NCCc1ccccc1	5.7 µg/mL (≈ 15.2 µM)
C[N+]1(C)[C@@H]2CC[C@H]1CC(OC(=O)C(CO)c1ccccc1)C2.O=[N+]([O-])[O-] (stereo partly drawn)	> 55 µg/mL
Cc1ccc(CNC(=O)c2ccc(Cl)c(S(N)(=O)=O)c2)n1C	41.5 µg/mL (≈ 121 µM)
Oc1ccccc1-c1nc(NC2CCCC2)c2ccccc2n1	< 0.2 µg/mL
CCC1CCC2(CC1)NC(=O)N(CC(=O)N1CCc3ccccc31)C2=O (stereo not drawn)	3.4 µg/mL (≈ 9.57 µM)
COc1ccc(-c2ccc3c(N)c(C(=O)NC(C)C)sc3n2)cc1OC	30.1 µg/mL (≈ 81 µM)
CC(=O)N1N=C(c2ccccc2)OC1c1cccnc1 (stereo not drawn)	> 40.1 µg/mL
CCOc1ccc(Nc2cc(C)nc3c(C)cccc23)cc1	24.5 µg/mL (≈ 83.8 µM)
CCCNC(=O)NC(=O)c1cnccc1C(F)(F)F	34.8 µg/mL (≈ 126 µM)

SMILES	solubility kinetic
O=C1ON=C(c2ccccc2)/C1=C/c1ccccc1	34.7 µg/mL (≈ 139 µM)
Cc1nn(C)cc1S(=O)(=O)Nc1cccc(Cl)c1	> 42.9 µg/mL
COc1cc(NC(=O)C(Cc2ccccc2)n2cccc2)cc(OC)c1 (stereo not drawn)	16.3 µg/mL (≈ 46.5 µM)
O=C1CC(Sc2cccs2)C(=O)N1c1ccccc1 (stereo not drawn)	41.7 µg/mL (≈ 144 µM)
Cc1cccc(N2CCN(C(=O)c3cccs3)CC2)c1C	23.8 µg/mL (≈ 79.2 µM)
CN1CCN(Cc2cc(=O)n3ccsc3n2)CC1	35.7 µg/mL (≈ 135 µM)
CC(=O)c1ccc(-n2c(C)c(C(C)=O)c3cc(O)ccc32)cc1	< 0.7 µg/mL
Cc1ccc(NC(=O)C2CC(O)CN2C(=O)OCc2ccccc2)cc1C (stereo not drawn)	48.8 µg/mL (≈ 132 µM)
Cc1c(C(=O)O/N=C(\N)c2ccccn2)cccc1[N+](=O)[O-]	5.2 µg/mL (≈ 17.3 µM)
CCOC(=O)c1csc(-c2ccc([N+](=O)[O-])cc2)n1	5.6 µg/mL (≈ 20.1 µM)
CCc1c(C)c2ccc(O)c(CN3CCCC3)c2oc1=O	41.6 µg/mL (≈ 145 µM)
C=C(c1ccccc1)c1ccc(N(C)C)cc1	2.3 µg/mL (≈ 10.3 µM)
CSc1nccc(NC(=O)c2ccc(C(C)(C)C)cc2)n1	4.2 µg/mL (≈ 13.9 µM)
O=C(COC(=O)CSc1ccccc1)Nc1ccc(F)cc1F	> 50.6 µg/mL
CC(=O)O.O=C(NCC1CCCCN1)c1cc(OCC(F)(F)F)ccc1OCC(F)(F)F (stereo not drawn)	> 71.2 µg/mL
Cc1cccc(C(=O)N2CCCC(c3nc(-c4ccc(C)o4)no3)C2)c1 (stereo not drawn)	47.7 µg/mL (≈ 136 µM)
CC1=NCCN1CCNC(=O)Nc1ccc(C(C)(C)C)cc1	> 45.4 µg/mL
COc1ccc(N2Cc3ccccc3C2=O)cc1	12.8 µg/mL (≈ 53.5 µM)
COc1ccc(NC(=O)c2cc([N+](=O)[O-])ccc2N2CCCCC2)cc1	0.3 µg/mL (≈ 0.844 µM)
COC(=O)c1cc(C(=O)N2CCOCC2)cc([N+](=O)[O-])c1	> 44.1 µg/mL
CCCCOc1ccc(C(=O)NCC(=O)OCC(=O)c2c(N)n(C)c(=O)n(C)c2=O)cc1	10.9 µg/mL (≈ 24.4 µM)
COC(=O)C1CCN(Cc2nnc(-c3ccccc3)o2)CC1	> 45.2 µg/mL
S=C(Nc1ccc(Cl)cc1)NC1CCCCC1	4.4 µg/mL (≈ 16.4 µM)
CC1=C(C)C(OCCBr)N(c2cc(O)c(Cl)cc2F)C1=O (stereo not drawn)	> 56.8 µg/mL
